Results as given in ChEMBL document CHEMBL3045500, “Antituberculosis and antibacterial evaluations of some novel phenyl pyrazolone-substituted 1h-benzo[g]pyrazolo[3,4-b]quinoline-3-ylamine derivatives” (2012).
Converted amounts (≈) assume the structure as drawn.

Key:
[1] = test system: Mycobacterium tuberculosis; assay: Antimicrobial activity against Mycobacterium tuberculosis H37Rv after 10 days by BACTEC MGIT method; assay type: functional; details: 240 h
[2] = test system: Escherichia coli; assay: Antimicrobial activity against Escherichia coli MTCC 739 after 24 hr by disk diffusion method; assay type: functional; details: for MIC: Escherichia coli, MTCC 739, 24 h
[3] = test system: Bacillus subtilis; assay: Antimicrobial activity against Bacillus subtilis MTCC 619 after 24 hr by disk diffusion method; assay type: functional; details: for MIC: Bacillus subtilis, MTCC 619, 24 h
[4] = test system: Pseudomonas aeruginosa; assay: Antimicrobial activity against Pseudomonas aeruginosa MTCC 741 after 24 hr by disk diffusion method; assay type: functional; details: for MIC: Pseudomonas aeruginosa, MTCC 741, 24 h
[5] = test system: Staphylococcus aureus; assay: Antimicrobial activity against Staphylococcus aureus MTCC 96 after 24 hr by disk diffusion method; assay type: functional; details: for MIC: Staphylococcus aureus, MTCC 96, 24 h
[6] = test system: Bacillus subtilis; assay: microbe, parasite or virus in culture; details: MTCC 619, 24 h, read-out: IZ
Description: Antimicrobial activity against Bacillus subtilis MTCC 619 at 100 ug/disk after 24 hr by disk diffusion method

[7] = test system: Staphylococcus aureus; assay: Antimicrobial activity against Staphylococcus aureus MTCC 96 at 100 ug/disc after 24 hr by disk diffusion method; details: MTCC 96, 24 h, read-out: IZ
[8] = test system: Pseudomonas aeruginosa; assay: microbe, parasite or virus in culture; details: MTCC 741, 24 h, read-out: IZ
Description: Antimicrobial activity against Pseudomonas aeruginosa MTCC 741 at 100 ug/disk after 24 hr by disk diffusion method

[9] = test system: Escherichia coli; assay: microbe, parasite or virus in culture; details: MTCC 739, 24 h, read-out: IZ
Description: Antimicrobial activity against Escherichia coli MTCC 739 at 100 ug/disk after 24 hr by disk diffusion method

In the case of `CC1=NN(c2ccc(Cl)c(Cl)c2)C(=O)C1/N=N/c1n[nH]c2nc3cc4ccccc4cc3cc12` (centres undefined), the MIC99 [1] is reported as 62.5 µg/mL (≈ 128 µM), the “inhibition zone (IZ)” value [2] is reported as 20 mm and the MIC [2] is reported as 50 µg/mL (≈ 102 µM). The “inhibition zone (IZ)” value [3] was 24 mm, the MIC [3] was 20 µg/mL (≈ 41 µM) and the “inhibition zone (IZ)” value [4] was 21 mm. For the same compound, the MIC [4] was 50 µg/mL (≈ 102 µM), the “inhibition zone (IZ)” value [5] was 20 mm and the MIC [5] was 20 µg/mL (≈ 41 µM).
For `CC1=NN(c2ccc(C)cc2)C(=O)C1/N=N/c1n[nH]c2nc3cc4ccccc4cc3cc12` (centres undefined), the MIC99 [1] was 125 µg/mL (≈ 288 µM), the “inhibition zone (IZ)” value [2] was 12 mm and the MIC [2] was 100 µg/mL (≈ 231 µM). The “inhibition zone (IZ)” value [3] was 16 mm, the MIC [3] was 50 µg/mL (≈ 115 µM) and the “inhibition zone (IZ)” value [4] was 14 mm. The MIC [4] was 100 µg/mL (≈ 231 µM), the “inhibition zone (IZ)” value [5] was 14 mm and the MIC [5] was 50 µg/mL (≈ 115 µM).
In the case of `CC1=NN(c2ccccc2Cl)C(=O)C1/N=N/c1n[nH]c2nc3cc4ccccc4cc3cc12` (centres undefined), the MIC99 [1] is reported as 250 µg/mL (≈ 551 µM), the “inhibition zone (IZ)” value [2] is reported as 16 mm and the MIC [2] is reported as 50 µg/mL (≈ 110 µM). The “inhibition zone (IZ)” value [3] was 16 mm, the MIC [3] was 50 µg/mL (≈ 110 µM) and the “inhibition zone (IZ)” value [4] was 16 mm. The MIC [4] was 50 µg/mL (≈ 110 µM), the “inhibition zone (IZ)” value [5] was 16 mm and the MIC [5] was 50 µg/mL (≈ 110 µM).
For `CC1=NN(c2cc(Cl)ccc2Cl)C(=O)C1/N=N/c1n[nH]c2nc3cc4ccccc4cc3cc12` (centres undefined), the MIC99 [1] was 62.5 µg/mL (≈ 128 µM), the “inhibition zone (IZ)” value [2] was 19 mm and the MIC [2] was 50 µg/mL (≈ 102 µM). The “inhibition zone (IZ)” value [3] was 24 mm, the MIC [3] was 20 µg/mL (≈ 41 µM) and the “inhibition zone (IZ)” value [4] was 18 mm. The MIC [4] was 50 µg/mL (≈ 102 µM), the “inhibition zone (IZ)” value [5] was 22 mm and the MIC [5] was 20 µg/mL (≈ 41 µM).
`CC1=NN(c2cc(Cl)c(S(=O)(=O)O)cc2Cl)C(=O)C1/N=N/c1n[nH]c2nc3cc4ccccc4cc3cc12` (centres undefined) was tested, and the MIC99 [1] was 500 µg/mL (≈ 880 µM), the “inhibition zone (IZ)” value [2] was 16 mm and the MIC [2] was 100 µg/mL (≈ 176 µM). For the same compound, the “inhibition zone (IZ)” value [3] was 20 mm, the MIC [3] was 50 µg/mL (≈ 88 µM) and the “inhibition zone (IZ)” value [4] was 15 mm. The MIC [4] was 100 µg/mL (≈ 176 µM), the “inhibition zone (IZ)” value [5] was 18 mm and the MIC [5] was 50 µg/mL (≈ 88 µM).
In the case of `CC1=NN(c2ccc(S(=O)(=O)O)cc2)C(=O)C1/N=N/c1n[nH]c2nc3cc4ccccc4cc3cc12` (centres undefined), the MIC99 [1] is reported as 1000 µg/mL (≈ 2000 µM), the “inhibition zone (IZ)” value [2] is reported as 10 mm and the MIC [2] is reported as 100 µg/mL (≈ 200 µM). The “inhibition zone (IZ)” value [3] was 12 mm, the MIC [3] was 100 µg/mL (≈ 200 µM) and the “inhibition zone (IZ)” value [4] was under 10 mm. The MIC [4] was 100 µg/mL (≈ 200 µM), the “inhibition zone (IZ)” value [5] was 14 mm and the MIC [5] was 100 µg/mL (≈ 200 µM).
For `CC1=NN(c2ccc(S(=O)(=O)O)cc2C)C(=O)C1/N=N/c1n[nH]c2nc3cc4ccccc4cc3cc12` (centres undefined), the MIC99 [1] was 500 µg/mL (≈ 974 µM), the “inhibition zone (IZ)” value [2] was 12 mm and the MIC [2] was 100 µg/mL (≈ 195 µM). The “inhibition zone (IZ)” value [3] was 11 mm, the MIC [3] was 100 µg/mL (≈ 195 µM) and the “inhibition zone (IZ)” value [4] was 11 mm. The MIC [4] was 100 µg/mL (≈ 195 µM), the “inhibition zone (IZ)” value [5] was 12 mm and the MIC [5] was 100 µg/mL (≈ 195 µM).
With `O=C(O)c1cn(C2CC2)c2cc(N3CCNCC3)c(F)cc2c1=O` [CIPROFLOXACIN] the zone of inhibition at 100 µg/disc [6] was 33 mm, the zone of inhibition at 100 µg/disc [7] was 32 mm and the MIC [2] was at most 1 µg/mL. The zone of inhibition at 100 µg/disc [8] was 31 mm, the MIC [3] was at most 1 µg/mL and the zone of inhibition at 100 µg/disc [9] was 30 mm. For the same compound, the MIC [4] was at most 1 µg/mL and the MIC [5] was at most 1 µg/mL.
Work on `NNC(=O)c1ccncc1` [ISONIAZID] yielded an MIC99 [1] of 0.2 µg/mL (≈ 1.46 µM).
With `CC1=NN(c2cccc(Cl)c2)C(=O)C1/N=N/c1n[nH]c2nc3cc4ccccc4cc3cc12` (centres undefined) the MIC99 [1] was 250 µg/mL (≈ 551 µM), the “inhibition zone (IZ)” value [2] was 17 mm and the MIC [2] was 50 µg/mL (≈ 110 µM). The “inhibition zone (IZ)” value [3] was 18 mm, the MIC [3] was 50 µg/mL (≈ 110 µM) and the “inhibition zone (IZ)” value [4] was 15 mm. For the same compound, the MIC [4] was 50 µg/mL (≈ 110 µM), the “inhibition zone (IZ)” value [5] was 16 mm and the MIC [5] was 50 µg/mL (≈ 110 µM).
With `CC1=NN(c2cc(S(=O)(=O)O)ccc2Cl)C(=O)C1/N=N/c1n[nH]c2nc3cc4ccccc4cc3cc12` (centres undefined) the MIC99 [1] was 1000 µg/mL (≈ 1870 µM), the “inhibition zone (IZ)” value [2] was 18 mm and the MIC [2] was 100 µg/mL (≈ 187 µM). For the same compound, the “inhibition zone (IZ)” value [3] was 14 mm, the MIC [3] was 50 µg/mL (≈ 93.6 µM) and the “inhibition zone (IZ)” value [4] was 14 mm. For the same compound, the MIC [4] was 100 µg/mL (≈ 187 µM), the “inhibition zone (IZ)” value [5] was 18 mm and the MIC [5] was 50 µg/mL (≈ 93.6 µM).
For `CC1=NN(c2cccc(S(=O)(=O)O)c2)C(=O)C1/N=N/c1n[nH]c2nc3cc4ccccc4cc3cc12` (centres undefined), the MIC99 [1] was 500 µg/mL (≈ 1000 µM), the “inhibition zone (IZ)” value [2] was 10 mm and the MIC [2] was 100 µg/mL (≈ 200 µM). For the same compound, the “inhibition zone (IZ)” value [3] was 12 mm, the MIC [3] was 100 µg/mL (≈ 200 µM) and the “inhibition zone (IZ)” value [4] was under 10 mm. For the same compound, the MIC [4] was 100 µg/mL (≈ 200 µM), the “inhibition zone (IZ)” value [5] was 11 mm and the MIC [5] was 100 µg/mL (≈ 200 µM).
